Where two headings read alike, the source gives them in different places.
Tests used:
[1] = stability compared to carvedilol base; assay type: physicochemical; settings: color of final product, phosphate sesquihydrate
[2] = solubility compared to carvedilol base
[3] = compared to the free base of carvedilol; disclosed in WO 2004/002419; cited from earlier work

Structure (SMILES)	stability [1]	solubility [2]	solubility [3]
COc1ccccc1OCCNCC(O)COc1cccc2[nH]c3ccccc3c12.O=P(O)(O)O (stereo not drawn) [carvedilol dihydrogen phosphate sesquihydrate]	More stable as compared to carvedilol base	Better solubility as compared to carvedilol base	–
COc1ccccc1OCCNCC(O)COc1cccc2[nH]c3ccccc3c12.O=P(O)(O)O (stereo not drawn) [carvedilol dihydrogen phosphate, Carvedilol dihydrogen phosphate]	–	–	higher solubility when compared to the free base of carvedilol

Source: patent US8344159B2, “Carvedilol phosphate sesquihydrate” (priority 2006, dated 2013)
